Key:
Format in all cases: physicochemical
[1] = Stability of sweetness enhancer to sunlight exposure in PET bottle with and without UV barrier (Example 1); conditions: 25 mg/L solution, 395 Langleys (Atlas Sun Test XLS+)
Method: Sweetness enhancer 3-((4-amino-2,2 -dioxido-1H-benzo [c][1,2,6]thiadiazin-5-yl)oxy)-2,2-dimethyl-N-propylpropanamide was evaluated for stability to sunlight exposure when formulated into a beverage packaged in PET packaging (bottle) with and without a UV barrier. The UV barrier PET bottle contained a UV absorbent compound that absorbs light up to approximately 390 nm. When a 25 mg/L solution of 3-((4-amino-2,2-dioxido-1H-benzo[c][1,2,6]thiadiazin-5-yl)oxy)-2,2-dimethyl-N-propylpropanamide was exposed to 395 Langleys of radiation (Atlas Sun Test XLS+Instrument) in a clear PET bottle with no UV barrier, 92% of 3-((4-amino-2,2 -dioxido-1H-benzo [c][1,2,6]thiadiazin-5-yl)oxy)-2,2-dimethyl-N-propylpropanamide was lost to degradation. The light exposure in this experiment was approximately equivalent to 24 hours of continuous irradiation or 2-3 days of normal sunlight irradiation (due to day/night cycle). In contrast, when the same experiment was carried out in a UV barrier PET bottle, only 10% of the 3-((4-amino-2,2-dioxido-1H-benzo[c][1,2,6]thiadiazin-5-yl)oxy)-2,2-dimethyl-N-propylpropanamide was lost to degradation.

[2] = Photodegradation on exposure to sunlight / UV light (background statements); conditions: sunlight for 2-3 days
Source text: Monatin (2-amino-4-carboxy-4-hydroxy-5-(3-indolyl)-pentanoic acid or 4-hydroxy-4-(3-indolylmethyl)-glutamic acid) is a natural sweetener. Monatin contains two chiral centers and therefore has four potential isomeric configurations: R,R-; S,S-; R,S-; and S,R-monatin. Different stereoisomers have different sweetening characteristics. Amino et al. have reported that the sweetness intensity is dependent on the optical purity of each stereoisomer (U.S. Patent Publication No. 2005/0020508).

[3] = Sucrose enhancer stability in prototype beverage formulation, UV irradiation in Atlas SunTest XLS+ (Example 6)
Method: The stability of sucrose enhancer 3-((4-amino-2,2-dioxido-1H-benzo[c][1,2,6]thiadiazin-5-yl)oxy)-2,2-dimethyl-N-propylpropanamide in regular PET bottles and PET bottles with UV barrier was evaluated. A control formulation was used that contained 106 mg sucrose enhancer in 4163 mg of a prototype beverage formulation. The prototype beverage formulation contained water, HFCS-55, citric acid, potassium citrate, EDTA, salts and vitamins. The samples were exposed to UV light using different Langley irradiation energy exposure at 40° C. in Atlas SunTest XLS+chamber.

[4] = prototype beverage formulation (control), PET, 0 Langley
[5] = prototype beverage formulation, PET with UV barrier, 66 Langley, 40° C.
[6] = prototype beverage formulation, PET with UV barrier, 197 Langley, 40° C.
[7] = prototype beverage formulation, PET with UV barrier, 395 Langley, 40° C.
[8] = prototype beverage formulation, PET, 66 Langley, 40° C.
[9] = prototype beverage formulation, PET, 197 Langley, 40° C.
[10] = prototype beverage formulation, PET, 395 Langley, 40° C.

Compound: CCCNC(=O)C(C)(C)COc1cccc2c1C(N)=NS(=O)(=O)N2 [Sucrose enhancer, 3-((4-amino-2,2-dioxido-1H-benzo[c][1,2,6]thiadiazin-5-yl)oxy)-2,2-dimethyl-N-propylpropanamide]
- lost to degradation ([1]; UV barrier PET bottle): 10%
- lost to degradation ([1]; clear PET bottle with no UV barrier): 92%
- degradation upon exposure to sunlight [2]: completely degraded to inactive ingredients
- Loss of Sucrose Enhancer (%) [3, 4]: 0%
- Remaining Sucrose Enhancer (%) [3, 4]: 100%
- Remaining Sucrose Enhancer (ppm) [3, 4]: 21.5 ppm
- Loss of Sucrose Enhancer (%) [3, 5]: 4%
- Remaining Sucrose Enhancer (%) [3, 5]: 96%
- Remaining Sucrose Enhancer (ppm) [3, 5]: 20.7 ppm
- Loss of Sucrose Enhancer (%) [3, 6]: 5%
- Remaining Sucrose Enhancer (%) [3, 6]: 95%
- Remaining Sucrose Enhancer (ppm) [3, 6]: 20.5 ppm
- Loss of Sucrose Enhancer (%) [3, 7]: 10%
- Remaining Sucrose Enhancer (%) [3, 7]: 90%
- Remaining Sucrose Enhancer (ppm) [3, 7]: 19.3 ppm
- Loss of Sucrose Enhancer (%) [3, 8]: 37%
- Remaining Sucrose Enhancer (%) [3, 8]: 63%
- Remaining Sucrose Enhancer (ppm) [3, 8]: 13.6 ppm
- Loss of Sucrose Enhancer (%) [3, 9]: 75%
- Remaining Sucrose Enhancer (%) [3, 9]: 25%
- Remaining Sucrose Enhancer (ppm) [3, 9]: 5.4 ppm
- Loss of Sucrose Enhancer (%) [3, 10]: 92%
- Remaining Sucrose Enhancer (%) [3, 10]: 7.9%
- Remaining Sucrose Enhancer (ppm) [3, 10]: 1.7 ppm

From US20120282377A1, “Methods and Formulations for Inhibiting Degradation of Photosensitive Sweeteners and Sweetener Enhancers” (priority 2011, published 2012)
